Data as given in PubChem BioAssay (NCI).
Where “and” joins values, the source holds several entries; their conditions need not be identical. Equal entries are not always repeated.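 These data come from cells grown in 96-well plates and exposed to compound for 48 hours at five concentrations. Abbreviation: GI50, concentration required for 50% inhibition of growth. TGI marks complete inhibition of growth.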

What was measured:
Assay in all cases: inhibition of tumour cell growth, NCI panel, 48 h
786-0 renal = system: 786-0 renal
A498 renal = system: A498 renal
A549 NSCLC = system: A549 NSCLC
ACHN renal = system: ACHN renal
CAKI-1 renal = system: CAKI-1 renal
CCRF-CEM leukemia = system: CCRF-CEM leukemia
COLO 205 colon = system: COLO 205 colon
DLD-1 colon = system: DLD-1 colon
DMS 273 small cell lung = system: DMS 273 small cell lung
EKVX NSCLC = system: EKVX NSCLC
HCC-2998 colon = system: HCC-2998 colon
HCT-116 colon = system: HCT-116 colon
HOP-18 NSCLC = system: HOP-18 NSCLC
HOP-62 NSCLC = system: HOP-62 NSCLC
HT29 colon = system: HT29 colon
K-562 leukemia = system: K-562 leukemia
KM12 colon = system: KM12 colon
KM20L2 colon = system: KM20L2 colon
LOX IMVI melanoma = system: LOX IMVI melanoma
LXFL 529 NSCLC = system: LXFL 529 NSCLC
M14 melanoma = system: M14 melanoma
M19-MEL melanoma = system: M19-MEL melanoma
MALME-3M melanoma = system: MALME-3M melanoma
NCI-H226 lung = system: NCI-H226 lung
NCI-H23 lung = system: NCI-H23 lung
NCI-H460 lung = system: NCI-H460 lung
NCI-H522 lung = system: NCI-H522 lung
OVCAR-3 ovarian = system: OVCAR-3 ovarian
OVCAR-4 ovarian = system: OVCAR-4 ovarian
OVCAR-5 ovarian = system: OVCAR-5 ovarian
OVCAR-8 ovarian = system: OVCAR-8 ovarian
RPMI-8226 leukemia = system: RPMI-8226 leukemia
RXF 393 renal = system: RXF 393 renal
SF-268 CNS = system: SF-268 CNS
SF-295 CNS = system: SF-295 CNS
SF-539 CNS = system: SF-539 CNS
SK-MEL-28 melanoma = system: SK-MEL-28 melanoma
SK-MEL-5 melanoma = system: SK-MEL-5 melanoma
SK-OV-3 ovarian = system: SK-OV-3 ovarian
SN12C renal = system: SN12C renal
SNB-19 CNS = system: SNB-19 CNS
SNB-75 CNS = system: SNB-75 CNS
SNB-78 CNS = system: SNB-78 CNS
TK-10 renal = system: TK-10 renal
U251 CNS = system: U251 CNS
UACC-257 melanoma = system: UACC-257 melanoma
UACC-62 melanoma = system: UACC-62 melanoma
UO-31 renal = system: UO-31 renal
XF 498 CNS = system: XF 498 CNS
DMS 114 small cell lung = system: DMS 114 small cell lung
DU-145 prostate = system: DU-145 prostate
HCT-15 colon = system: HCT-15 colon
HS 578T breast = system: HS 578T breast
MCF7 breast = system: MCF7 breast
MDA-MB-231 breast = system: MDA-MB-231 breast
MDA-MB-435 = system: MDA-MB-435
MDA-N = system: MDA-N
NCI/ADR-RES ovarian = system: NCI/ADR-RES ovarian
PC-3 prostate = system: PC-3 prostate
SK-MEL-2 melanoma = system: SK-MEL-2 melanoma
T-47D breast = system: T-47D breast
HL-60(TB) leukemia = system: HL-60(TB) leukemia
HOP-92 NSCLC = system: HOP-92 NSCLC
IGROV1 ovarian = system: IGROV1 ovarian
MOLT-4 leukemia = system: MOLT-4 leukemia
SW-620 colon = system: SW-620 colon
SR leukemia = system: SR leukemia

CCOc1ccc(O)cc1[P+](c1ccccc1)(c1ccccc1)c1ccccc1
TGI (786-0 renal): 20.2 µM | TGI (A498 renal): 29.5 µM | TGI (A549 NSCLC): 43.2 µM | TGI (ACHN renal): 81.7 µM | TGI (CAKI-1 renal): 23.4 µM | TGI (CCRF-CEM leukemia): 11.2 µM | TGI (COLO 205 colon): 10 µM | TGI (DLD-1 colon): 17.6 µM | TGI (DMS 273 small cell lung): 10.1 µM | TGI (EKVX NSCLC): 24.2 µM | TGI (HCC-2998 colon): 13.4 µM | TGI (HCT-116 colon): 13.7 µM | TGI (HOP-18 NSCLC): 9.61 µM | TGI (HOP-62 NSCLC): 28.9 µM | TGI (HT29 colon): 17.6 µM | TGI (K-562 leukemia): 9.48 µM | TGI (KM12 colon): 11.7 µM | TGI (KM20L2 colon): 17.9 µM | TGI (LOX IMVI melanoma): 13.6 µM | TGI (LXFL 529 NSCLC): 12.1 µM | TGI (M14 melanoma): 16.7 µM | TGI (M19-MEL melanoma): 15.3 µM | TGI (MALME-3M melanoma): 20.1 µM | TGI (NCI-H226 lung): 14.5 µM | TGI (NCI-H23 lung): 5.55 µM | TGI (NCI-H460 lung): 14.5 µM | TGI (NCI-H522 lung): 6.39 µM | TGI (OVCAR-3 ovarian): 11.4 µM | TGI (OVCAR-4 ovarian): 19.4 µM | TGI (OVCAR-5 ovarian): 13.1 µM | TGI (OVCAR-8 ovarian): 15.7 µM | TGI (RPMI-8226 leukemia): 26.5 µM | TGI (RXF 393 renal): 17.9 µM | TGI (SF-268 CNS): > 100 µM | TGI (SF-295 CNS): 19.9 µM | TGI (SF-539 CNS): 17.8 µM | TGI (SK-MEL-28 melanoma): 22.6 µM | TGI (SK-MEL-5 melanoma): 4.7 µM | TGI (SK-OV-3 ovarian): 27.1 µM | TGI (SN12C renal): 13.7 µM | TGI (SNB-19 CNS): 24.5 µM | TGI (SNB-75 CNS): 25.6 µM | TGI (SNB-78 CNS): 84.8 µM | TGI (TK-10 renal): 12.9 µM | TGI (U251 CNS): 15 µM | TGI (UACC-257 melanoma): 5.9 µM | TGI (UACC-62 melanoma): 17.8 µM | TGI (UO-31 renal): 52.5 µM | TGI (XF 498 CNS): 4.52 µM

COc1ccc2c(c[n+](C)c3c4cc5c(cc4ccc23)OCO5)c1OC
GI50 (A498 renal): 9.16 µM and 73.7 µM | TGI (A498 renal): 21.9 µM and > 100 µM | TGI (CAKI-1 renal): 3.63 µM | TGI (DLD-1 colon): 3.08 µM | TGI (DMS 114 small cell lung): 4.71 µM | TGI (DMS 273 small cell lung): 3.72 µM | TGI (DU-145 prostate): > 100 µM | TGI (HCT-15 colon): 17.5 µM and > 100 µM | TGI (HOP-18 NSCLC): 4.04 µM | TGI (HS 578T breast): > 100 µM | GI50 (HT29 colon): 1.78 µM and 5.12 µM | GI50 (K-562 leukemia): 3.8 µM and 34.1 µM | TGI (K-562 leukemia): > 100 µM | GI50 (KM12 colon): 2.1 µM and 9 µM | TGI (KM20L2 colon): 3.15 µM | TGI (LXFL 529 NSCLC): 3.35 µM | TGI (M19-MEL melanoma): 3.07 µM | TGI (MCF7 breast): 79.6 µM | TGI (MDA-MB-231 breast): > 100 µM | TGI (MDA-MB-435): 43.8 µM | TGI (MDA-N): 44.5 µM | TGI (NCI-H522 lung): 3.64 µM | TGI (NCI/ADR-RES ovarian): > 100 µM | GI50 (OVCAR-5 ovarian): 2.49 µM and 22.8 µM | TGI (PC-3 prostate): > 100 µM | TGI (RPMI-8226 leukemia): > 100 µM | TGI (RXF 393 renal): > 100 µM | TGI (SK-MEL-2 melanoma): 3.54 µM | TGI (SNB-78 CNS): 4.26 µM | TGI (T-47D breast): > 100 µM

O=C(C/C(CCC(=O)N(Cc1ccccc1)Cc1ccccc1)=N/Nc1ccc([N+](=O)[O-])cc1[N+](=O)[O-])c1ccccc1
TGI (786-0 renal): > 100 µM | TGI (A549 NSCLC): > 100 µM | TGI (CCRF-CEM leukemia): > 100 µM | TGI (COLO 205 colon): > 100 µM | TGI (DLD-1 colon): > 100 µM | TGI (DMS 114 small cell lung): > 100 µM | TGI (DMS 273 small cell lung): > 100 µM | TGI (EKVX NSCLC): > 100 µM | TGI (HCC-2998 colon): > 100 µM | TGI (HCT-116 colon): > 100 µM | TGI (HCT-15 colon): > 100 µM | TGI (HL-60(TB) leukemia): > 100 µM | TGI (HOP-18 NSCLC): > 100 µM | TGI (HOP-62 NSCLC): > 100 µM | TGI (HOP-92 NSCLC): > 100 µM | TGI (HT29 colon): > 100 µM | TGI (IGROV1 ovarian): > 100 µM | TGI (K-562 leukemia): > 100 µM | TGI (KM12 colon): > 100 µM | TGI (KM20L2 colon): > 100 µM | TGI (LOX IMVI melanoma): > 100 µM | TGI (LXFL 529 NSCLC): > 100 µM | TGI (M14 melanoma): > 100 µM | TGI (M19-MEL melanoma): > 100 µM | TGI (MALME-3M melanoma): > 100 µM | TGI (MOLT-4 leukemia): 73.9 µM | TGI (NCI-H226 lung): > 100 µM | TGI (NCI-H23 lung): > 100 µM | TGI (NCI-H460 lung): > 100 µM | TGI (NCI-H522 lung): > 100 µM | TGI (OVCAR-3 ovarian): > 100 µM | TGI (OVCAR-4 ovarian): > 100 µM | TGI (OVCAR-5 ovarian): > 100 µM | TGI (OVCAR-8 ovarian): > 100 µM | TGI (RPMI-8226 leukemia): > 100 µM | TGI (SF-268 CNS): > 100 µM | TGI (SF-295 CNS): > 100 µM | TGI (SF-539 CNS): > 100 µM | TGI (SK-MEL-2 melanoma): > 100 µM | TGI (SK-MEL-28 melanoma): > 100 µM | TGI (SK-OV-3 ovarian): > 100 µM | TGI (SNB-19 CNS): > 100 µM | TGI (SNB-75 CNS): > 100 µM | TGI (SNB-78 CNS): > 100 µM | TGI (SW-620 colon): > 100 µM | TGI (TK-10 renal): > 100 µM | TGI (U251 CNS): > 100 µM | TGI (UACC-257 melanoma): > 100 µM | TGI (UACC-62 melanoma): > 100 µM | TGI (UO-31 renal): > 100 µM | TGI (XF 498 CNS): > 100 µM

O=C(CCc1nnc2s/c(=C\c3ccccc3Cl)c(=O)n12)Nc1cc(Cl)ccc1Cl
TGI (786-0 renal): > 100 µM | TGI (A549 NSCLC): > 100 µM | TGI (ACHN renal): > 100 µM | TGI (CAKI-1 renal): > 100 µM | TGI (CCRF-CEM leukemia): > 100 µM | TGI (DLD-1 colon): > 100 µM | TGI (DMS 114 small cell lung): > 100 µM | TGI (EKVX NSCLC): > 100 µM | TGI (HCC-2998 colon): > 100 µM | TGI (HCT-116 colon): > 100 µM | TGI (HCT-15 colon): > 100 µM | TGI (HL-60(TB) leukemia): > 100 µM | TGI (HOP-18 NSCLC): > 100 µM | TGI (HOP-62 NSCLC): > 100 µM | TGI (HOP-92 NSCLC): > 100 µM | TGI (HT29 colon): > 100 µM | TGI (IGROV1 ovarian): > 100 µM | TGI (K-562 leukemia): > 100 µM | TGI (KM12 colon): > 100 µM | TGI (LOX IMVI melanoma): > 100 µM | TGI (LXFL 529 NSCLC): > 100 µM | TGI (M14 melanoma): > 100 µM | TGI (M19-MEL melanoma): > 100 µM | TGI (MALME-3M melanoma): > 100 µM | TGI (MOLT-4 leukemia): > 100 µM | TGI (NCI-H226 lung): > 100 µM | TGI (NCI-H23 lung): > 100 µM | TGI (NCI-H460 lung): > 100 µM | TGI (NCI-H522 lung): > 100 µM | TGI (OVCAR-3 ovarian): > 100 µM | TGI (OVCAR-4 ovarian): > 100 µM | TGI (OVCAR-5 ovarian): > 100 µM | TGI (OVCAR-8 ovarian): > 100 µM | TGI (RPMI-8226 leukemia): > 100 µM | TGI (RXF 393 renal): > 100 µM | TGI (SF-268 CNS): > 100 µM | TGI (SF-295 CNS): > 100 µM | TGI (SF-539 CNS): > 100 µM | TGI (SK-MEL-2 melanoma): > 100 µM | TGI (SK-MEL-28 melanoma): > 100 µM | TGI (SK-MEL-5 melanoma): > 100 µM | TGI (SK-OV-3 ovarian): > 100 µM | TGI (SN12C renal): > 100 µM | TGI (SNB-19 CNS): > 100 µM | TGI (SNB-78 CNS): > 100 µM | TGI (SR leukemia): > 100 µM | TGI (SW-620 colon): > 100 µM | TGI (TK-10 renal): > 100 µM | TGI (U251 CNS): > 100 µM | TGI (UACC-257 melanoma): > 100 µM | TGI (UACC-62 melanoma): > 100 µM | TGI (UO-31 renal): > 100 µM | TGI (XF 498 CNS): > 100 µM
